Consider 14 molecules from patent EP4678638A1, “NEW E3 UBIQUITIN LIGASE LIGAND, PROTEIN DEGRADATION AGENT AND USE THEREOF” (priority 2023, dated 2024).

This experiment has as its target T1, human Cereblon WT GST-tagged protein (Homo sapiens, UniProt Q96SW2).
T1 construct: purchased CISBIO 64BDCRBNPEH
The experiment can be described thus: CRBN binding, HTRF (CEREBLON BINDING kit). The conditions noted are these: Table II-2, CRBN binding screening, HTRF; for inhibition at 0.5 µM: read-out: Inhibition rate (%) at 0.5µM; for inhibition at 2 µM: read-out: Inhibition rate (%) at 2 µM. The procedure: The CEREBLON BINDING kits (specification: 10,000 tests; product number: Catalog # 64BDCRBNPEH; CISBIO company) was used to determine the CRBN binding ability of the compounds to be tested through a HTRF method (homogeneous time-resolved fluorescence). The specific methods are as follows: • 1. […] Then, 2.5 µL of human Cereblon WT GST-tagged protein solution was added to each well. Finally, 5 µL of the thoroughly mixed Thalidomide-Re reagent and GST Eu antibody working solution were added to each of the aforementioned wells. […] The blank control wells were sequentially added with 2.5 µL of diluent #9 (1X) solution, 2.5 µL of binding buffer, and 5 µL of thoroughly mixed Thalidomide-Re reagent and GST Eu antibody working solution. • 4. After sealing and incubating the solutions in the aforementioned wells at room temperature for 3 hours, the […] at emission wavelengths of 620 nm and 665 nm were detected by the HTRF method using a Spark microplate reader (V3.1 SP1).

T1 sequence (Q96SW2 whole entry): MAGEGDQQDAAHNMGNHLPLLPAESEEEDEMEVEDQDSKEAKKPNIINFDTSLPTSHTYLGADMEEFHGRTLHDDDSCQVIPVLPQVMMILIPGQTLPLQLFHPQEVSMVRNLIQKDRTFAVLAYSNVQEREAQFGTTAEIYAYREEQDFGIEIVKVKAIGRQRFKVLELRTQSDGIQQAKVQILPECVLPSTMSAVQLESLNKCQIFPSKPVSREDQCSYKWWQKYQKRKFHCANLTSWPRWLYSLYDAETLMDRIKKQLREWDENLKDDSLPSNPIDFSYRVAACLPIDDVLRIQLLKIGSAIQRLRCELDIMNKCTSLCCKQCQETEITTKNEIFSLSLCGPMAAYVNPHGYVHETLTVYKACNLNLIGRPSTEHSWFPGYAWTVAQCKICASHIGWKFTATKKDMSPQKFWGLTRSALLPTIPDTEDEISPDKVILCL

`CNC(=O)c1ccccc1Nc1cc(Nc2cc(C)c(C3CCN(Cc4cccc(N5CCC(=O)NC5=O)c4)CC3)cc2OC(C)C)ncc1C(F)(F)F` [GT-07668, 2-((2-((4-(1-(3-(2,4-dioxotetrahydropyrimidin-1(2H)-yl)benzyl)piperidin-4-yl)-2-isopropoxy-5-methylphenyl)amino)-5-(trifluoromethyl)pyridin-4-yl)amino)-N-methylbenzamide]: for the setting “at 0.5µM”, the “Inhibition rate (%) at 0.5µM” value is “a2 (20% < a2 ≤ 30%)”. The “Inhibition rate (%) at 2 µM” value (at 2 µM) is recorded as “a5 (53% < a5 ≤ 60%)”.
In the case of `CNC(=O)c1ccccc1Nc1cc(Nc2cc(C)c(C3CCN(Cc4ccc(N5CCC(=O)NC5=O)cn4)CC3)cc2OC(C)C)ncc1C(F)(F)F` [GT-07669, 2-((2-((4-(1-((5-(2,4-dioxotetrahydropyrimidin-1(2H)-yl)pyridin-2-yl)methyl)piperidin-4-yl)-2-isopropoxy-5-methylphenyl)amino)-5-(trifluoromethyl)pyridin-4-yl)amino)-N-methylbenzamide], under “at 0.5µM”, the inhibition at 0.5 µM fell in the range of 10 to 20%. Besides, the inhibition at 2 µM (at 2 µM) lay in the range of 53 to 60%.
For `CNC(=O)c1ccccc1Nc1cc(Nc2cc(C)c(C3CCN(Cc4cc(C5CCC(=O)NC5=O)cnc4F)CC3)cc2OC(C)C)ncc1C(F)(F)F` (stereo not shown) [GT-07675, 2-((2-((4-(1-((5-(2,6-dioxopiperidin-3-yl)-2-fluoropyridin-3-yl)methyl)piperidin-4-yl)-2-isopropoxy-5-methylphenyl)amino)-5-(trifluoromethyl)pyridin-4-yl)amino)-N-methylbenzamide] the same measures were 40 to 53% and 60 to 80%.
In the same order, the values of `COc1cc(N2CCC(N3CCN(Cc4cc(N5CCC(=O)NC5=O)cnc4F)CC3)CC2)ccc1Nc1ncc(Cl)c(Nc2ccccc2P(C)(C)=O)n1` [GT-07759, 1-(5-((4-(1-(4-((5-chloro-4-((2-(dimethylphosphoryl)phenyl)amino)pyrimidin-2-yl)amino)-3-methoxyphenyl)piperidin-4-yl)piperazin-1-yl)methyl)-6-fluoropyridin-3-yl)dihydropyrimidine-2,4(1H,3H)-dione] are 30 to 40% and 53 to 60%.
For `O=C1CCN(c2cnc(F)c(CN3CCN(c4ccc(-c5cc(F)c6c(c5)C(=O)N(C(CNc5nccs5)c5ncn7c5CCC7)C6)cc4)CC3)c2)C(=O)N1` (stereo not shown) [GT-07760, 1-(5-((4-(4-(2-(1-(6,7-dihydro-5H-pyrrolo[1,2-c]imidazol-1-yl)-2-(thiazol-2-ylamino)ethyl)-7-fluoro-3-oxoisoindolin-5-yl)phenyl)piperazin-1-yl)methyl)-6-fluoropyridin-3-yl)dihydropyrimidine-2,4(1H,3H)-dione] the same measures were 40 to 53% and 60 to 80%.
`O=C1CCN(c2cnc(CN3CCN(c4ccc(-c5cc(F)c6c(c5)C(=O)N(C(C(=O)Nc5nccs5)c5ncn7c5CCC7)C6)cc4)CC3)cn2)C(=O)N1` (stereo not shown) [GT-07761, 2-(6,7-dihydro-5H-pyrrolo[1,2-c]imidazol-1-yl)-2-(6-(4-(4-((5-(2,4-dioxotetrahydropyrimidin-1(2H)-yl)pyrazin-2-yl)methyl)piperazin-1-yl)phenyl)-4-fluoro-1-oxoisoindolin-2-yl)-N-(thiazol-2-yl)acetamide]: for the setting “at 0.5µM”, the inhibition at 0.5 µM was in the range of 20 to 30%. Also, the inhibition at 2 µM (at 2 µM) was in the range of 53 to 60%.
For `O=C1CCN(c2cncc(CN3CCC(n4cc(NC(=O)c5cnn6ccc(N7CCOCC7)nc56)c(C(F)F)n4)CC3)c2)C(=O)N1` [GT-07766, N-(3-(difluoromethyl)-1-(1-((5-(2,4-dioxotetrahydropyrimidin-1(2H)-yl)pyridin-3-yl)methyl)piperidin-4-yl)-1H-pyrazol-4-yl)-5-morpholinopyrazolo[1,5-a]pyrimidine-3-carboxamide] the same measures were 30 to 40% and 60 to 80%.
In the same order, the values of `O=C1CCC(c2cnc(F)c(CN3CCC(n4cc(NC(=O)c5cnn6ccc(N7CCOCC7)nc56)c(C(F)F)n4)CC3)c2)C(=O)N1` (stereo not shown) [GT-07767, N-(3-(difluoromethyl)-1-(1-((5-(2,6-dioxopiperidin-3-yl)-2-fluoropyridin-3-yl)methyl)piperidin-4-yl)-1H-pyrazol-4-yl)-5-morpholinopyrazolo[1,5-a]pyrimidine-3-carboxamide] are 40 to 53% and 80 to 100%.
For `O=C1CCC(c2ccc(CN3CCC(n4cc(NC(=O)c5cnn6ccc(N7CCOCC7)nc56)c(C(F)F)n4)CC3)nc2)C(=O)N1` (stereo not shown) [GT-07769, N-(3-(difluoromethyl)-1-(1-((5-(2,6-dioxopiperidin-3-yl)pyridin-2-yl)methyl)piperidin-4-yl)-1H-pyrazol-4-yl)-5-morpholinopyrazolo[1,5-a]pyrimidine-3-carboxamide] the same measures were 40 to 53% and 80 to 100%.
`O=C1CCC(c2cncc(CN3CCC(n4cc(NC(=O)c5cnn6ccc(N7CCOCC7)nc56)c(C(F)F)n4)CC3)c2)C(=O)N1` (stereo not shown) [GT-07770, N-(3-(difluoromethyl)-1-(1-((5-(2,6-dioxopiperidin-3-yl)pyridin-3-yl)methyl)piperidin-4-yl)-1H-pyrazol-4-yl)-5-morpholinopyrazolo[1,5-a]pyrimidine-3-carboxamide]: under “at 0.5µM”, the inhibition at 0.5 µM was 30 to 40%. Also, the inhibition at 2 µM (at 2 µM) lay in the range of 80 to 100%.
Turning to `O=C1CCN(c2cncc(CN3CCC(n4cc(NC(=O)c5cnn6ccc(N7C[C@H]8C[C@@H]7CO8)nc56)c(C(F)F)n4)CC3)c2)C(=O)N1` [GT-07774, 5-((1R,4R)-2-oxa-5-azabicyclo[2.2.1]heptan-5-yl)-N-(3-(difluoromethyl)-1-(1-((5-(2,4-dioxotetrahydropyrimidin-1(2H)-yl)pyridin-3-yl)methyl)piperidin-4-yl)-1H-pyrazol-4-yl)pyrazolo[1,5-a]pyrimidine-3-carboxamide], for the setting “at 0.5µM”, the inhibition at 0.5 µM fell in the range of 40 to 53%. Also, under “at 2 µM”, the inhibition at 2 µM lay in the range of 80 to 100%.
With `O=C1CCC(c2cnc(F)c(CN3CCC(n4cc(NC(=O)c5cnn6ccc(N7C[C@H]8C[C@@H]7CO8)nc56)c(C(F)F)n4)CC3)c2)C(=O)N1` (stereo partly drawn) [GT-07775, 5-((1R,4R)-2-oxa-5-azabicyclo[2.2.1]heptan-5-yl)-N-(3-(difluoromethyl)-1-(1-((5-(2,6-dioxopiperidin-3-yl)-2-fluoropyridin-3-yl)methyl)piperidin-4-yl)-1H-pyrazol-4-yl)pyrazolo[1,5-a]pyrimidine-3-carboxamide], the inhibition at 0.5 µM (at 0.5µM) fell in the range of 60 to 80%. In addition, the inhibition at 2 µM (at 2 µM) was 80 to 100%.
With `O=C1CCC(c2cc(CN3CCC(n4cc(NC(=O)c5cnn6ccc(N7C[C@H]8C[C@@H]7CO8)nc56)c(C(F)F)n4)CC3)ccn2)C(=O)N1` (stereo partly drawn) [GT-07776, 5-((1R,4R)-2-oxa-5-azabicyclo[2.2.1]heptan-5-yl)-N-(3-(difluoromethyl)-1-(1-((2-(2,6-dioxopiperidin-3-yl)pyridin-4-yl)methyl)piperidin-4-yl)-1H-pyrazol-4-yl)pyrazolo[1,5-a]pyrimidine-3-carboxamide], the inhibition at 0.5 µM (at 0.5µM) was 20 to 30%. For the same molecule, the inhibition at 2 µM (at 2 µM) lay in the range of 60 to 80%.
In the same order, the values of `O=C1CCC(c2ccc(CN3CCC(n4cc(NC(=O)c5cnn6ccc(N7C[C@H]8C[C@@H]7CO8)nc56)c(C(F)F)n4)CC3)nc2)C(=O)N1` (stereo partly drawn) [GT-07777, 5-((1R,4R)-2-oxa-5-azabicyclo[2.2.1]heptan-5-yl)-N-(3-(difluoromethyl)-1-(1-((5-(2,6-dioxopiperidin-3-yl)pyridin-2-yl)methyl)piperidin-4-yl)-1H-pyrazol-4-yl)pyrazolo[1,5-a]pyrimidine-3-carboxamide] are 53 to 60% and 80 to 100%.
